One assay deals with 30H12 antibody. As to the kind of experiment: ELISA with peptide-BSA conjugate on 30H12-coated plates. The conditions noted are these: no competitor, FIG. 12A. Format: binding. The text has this:
FIG. 12A: ELISA using 30H12 anti-PSA monoclonal antibody-coated plates.
The specificity of the cyclic peptides was investigated in an ELISA assay using plates coated with 30H12 antibody, following the protocol as described above for the competitive ELISA, with the exception that the competitor was omitted.

The subject of assay [1] is GFP positive SVZ cells migrating to the olfactory bulb. As to the kind of experiment: Transplantation of GFP SVZ explants: cell migration in vivo. The arrangement: species or system mouse. Here is the method: 100 μm diameter explants of 1-day-old GFP mice SVZ were incubated fifteen minutes in DMEM supplemented with 10% fetal bovine serum in presence of 0.01 M of p65 or reverse peptide and stereotaxically grafted (0.5 μl) into six weeks old mice SVZ as described in Lois and Alvarez-Buylla (Science, 1994, 264, 1145-1 148). Three or four days after the graft, animals were perfused intracardiacally with a 4% paraformaldehyde solution in PBS. Brains were dissected out, postfixed, cryoprotected, and freezed in isopentane. Sagittal serial sections (12 μm) were cut with a Leica microtome and immunostained as described above. GFP cells arriving in the olfactory bulb after three days were observed using UV fluorescence with a 40× objective (Axioscope, ZEISS) and counted on two different experiments (four animals per condition). The significance of the difference between the two conditions was calvalated by Student's t test.
The effect of PSA mimetic peptides on cell migration in vivo was analysed by grafting tissue and evaluating migration of SVZ cells. Small pieces of SVZ tissue (100 μm diameter) from 1-day-old GFP mice were grafted in the SVZ area of adult mice, in the presence of p65, p65 reverse peptide or in the absence of peptide. The results are illustrated in FIG. 8.

The test system of assay [2] is subventricular zone explants (neuronal precursors). As to the kind of experiment: Subventricular zone (SVZ) explant culture: cell migration in vitro. Format: cell-based, mouse. The conditions noted are these: for Rate of migration of the neuronal precursors compared to the corresponding control peptide: FIG. 7, controls reverse p65 and p22. Here is the method: Cultures of SVZ explants were performed as described in Chazal et al., precited. Briefly, 1-day-old mice were killed by rapid decapitation. Brains were dissected out and sectionned by Vibratome (Leica). The SVZ from the lateral wall of the anterior lateral ventricle horn was dissected out in HBSS medium (LIFE TECHNOLOGIES) and cut into 200-300 μm diameter explants. The explants were mixed with Matrigel (BECKTON DICKINSON) and cultured in four-well dishes. After polymerisation, the gel was overlaid with 400 μl of serum-free medium containing B-27 supplement (LIFE TECHNOLOGIES), in the presence or the absence of 40 μM of peptides (p65, p66, reverse p65, p21 or p22) and 70 U of Endo N per milliliter.
(§1) After 48 h in culture, explants were examining directly (SVZ) or after overnight fixation with a 4% paraformaldehyde solution in PBS and immunostaining (DRGs). Observation was done using 2, 5×, 5×, 10× and 32× objectives (Axiovert 35M, ZEISS). Images were collected with a video camera (Cool View, PHOTONIC SCIENCE) and analysed using image-processing software (Visiolab1000, BIOCOM). Mean migration distance (calculated on five different experiments, including at least five explants per condition) or mean length of the longest neurite (calculated on two different experiments, including at least eight explants per condition), was the distance in micrometers between the explant edge and the border of the cell migration front. Four measurements were performed for each explant. The significance of the differences between the control and the different experimental conditions was calculated by Student's t test.

The subject of assay [3] is Mouse dorsal root ganglion explants (E13.5). As to the kind of experiment: Dorsal root ganglion explant culture: neurite outgrowth and fasciculation. The assay is classed as cell-based. Here is the method: E13.5 DRGs were dissected out from mice embryos in HBSS medium and seeded on glass coverslips coated with polylysine or with peptides linked to BSA. Explants were cultured in the presence or the absence of the peptides under soluble form (40 μM) in two ml of neurobasal medium (DMEM/Ham's F12, 3:1 (V/V), GIBCO, buffered with 20 mM Hepes), supplemented as described in Faivre-Sarrailh et al., J. Cell. Sci., 1999, 18, 3015-3027 and Chazal et al., J.Neurosci., 2000, 20, 1446-1457.
Fixed DRGs (Dorsal Root ganglia) explants and sections were incubated at 4° C. respectively 2 hr with an anti-neurofilament (SMI-31, dilution 1:800, STERNBERGER MONOCLONALS) and overnight with an anti-PSA antibody (dilution 1:200, Rougon et al, J. Cell. Biol., 1986, 103, 2429-2437). Revelation was performed by 1 hr incubation with the corresponding fluorescent-labeled secondary antibody (Goat anti-mouse IgM or IgG conjugated with texas red, IMMUNOTECH)
as §1
Mouse dorsal root ganglion explants (E13.5) were cultured in the presence of p65 and p66 cyclic mimetic peptides, either in soluble form or coated on the microplates as BSA conjugates. Cells cultured in the absence of peptides or in the presence of reverse peptides (coated or in soluble form) were used as controls.

Assay [4] has as its system 30H12 monoclonal antibody. As to the kind of experiment: Competitive binding to PSA-NCAM expressing cells (30H12). The arrangement: dose or concentration left out as unconfirmed. Here is the method:
FIGS. 12B, 12C and 12D: competitive binding to PSA-NCAM expressing cells. B: pre-incubation of p65 (1 mM) or p66 (1 mM) with MenB anti-PSA antibody. C: 30H12 anti-PSA antibody without peptide. […]
The specificity of p65 and p66 peptides was tested in a competition assay using anti-PSA antibodies and PSA-NCAM expressing cells. […] The binding specificity was examined in greater detail by testing peptide recognition by another anti-PSA mononclonal antibody (MenB). […] Thus, p65 and p66 mimotopes appear to be specific for a unique (idiotypic) determinant.

The subject of assay [5] is Glial Fibrillary acidic Protein (GFAP) expression. As to the kind of experiment: Reactive gliosis after spinal cord injury (GFAP staining). The assay is classed as in vivo, mouse. Particulars: D5 following surgery. Here is the method:
At D5, lesioned animals which received either p65 (n=3) or reversed p65 (n=3) were transcardiacally perfused. Spinal cords were sectioned in the sagittal plane at 20 μm intervals in blocks of 10 mm length at the lesion site. To examine lesion extent, Nissl staining was performed in series of 1-in-6 sections in all animals. Series of 1-in-3 sections were stained with the MenB anti-PSA (mouse IgM) and/or anti-GFAP (mouse IgG) antibodies.
To assess the effect of the peptide, quantification of the Glial Fibrillary acidic Protein (GFAP) expression as an index of reactive gliosis, was undertaken in a subset of animals taken D5 following surgery. These animals were selected in a blinded manner for quantification. 3 p65 (10 slices per animal) and 3 p65-reverse (10 slices per animal) animals were analyzed. Double-labelling was performed with MenB anti-PSA antibody. Quantification was also performed in a blinded manner.

The subject of assay [6] is subventricular zone explants (neuronal precursors). As to the kind of experiment: Subventricular zone (SVZ) explant culture: cell migration in vitro. The assay is classed as cell-based, mouse. Particulars: 0.4 μM peptide.
Setting [7] is: peptide in coated form (BSA conjugate).
[8] abbreviates: peptide in soluble form (40 μM), versus controls.

Entries after “also recorded” stand apart in the source; their conditions may differ.

With CSSVTAWTTGCG [p65], in the assay with 30H12 antibody, the “Binding of cyclic peptides to 30H12 antibody in ELISA” value is given as “highest binding”. In addition, in assay [1] (3 days after the graft), the “Increase of the number of GFP positive cells present in the olfactory bulb by comparison with the control” value was 17 times. For the same sequence, the “Number of GFP positive cells migrating to the olfactory bulb” value in assay [1] (by comparison with the control, from 3 days post-engraftment) is given as “increases significantly”. Besides, in assay [2], the “Rate of migration of the neuronal precursors compared to the corresponding control peptide” value is given as “significant increase”. In addition, the “Rate of migration of the neuronal precursors and chain-like arrangement” value in assay [2] (SVZ explants in Matrigel, FIG. 4) is reported as “increases the rate of migration”. Besides, the “Migration of precursors from NCAM −/− mice” value in assay [2] (SVZ explants of NCAM −/− mice, FIG. 6) is on record as “did not reverse the impaired migration”. Moreover, the “Concentration from which the optimal effect on cell migration is observed” value in assay [2] (dose-response curve) was ≥ 0.4 µM. In assay [2] (with endo N treatment), the “PSA-dependence of the migration effect” value is given as “abolished by endo N treatment”. Moreover, in assay [3] (setting [7]), the Fasciculation result was “opposite effect on fasciculation” and the Neurite outgrowth entry was “no effect on neurite outgrowth; also recorded: no significant increase”. Moreover, in assay [3] (setting [8]), the Axonal growth result is “significant increase in axonal growth” and the “Fasciculation of axon bundles” value is “clear defasciculation of axon bundles”. Also, the “Increase of neurite outgrowth compared to the controls” value in assay [3] (peptide in soluble form, mean length of the longest neurite) worked out at 34%. The “Binding of 30H12 monoclonal antibody to PSA-NCAM expressing cells after pre-incubation with peptide” value in assay [4] is listed as “prevented its binding”. For the same sequence, the “Reduction of reactive gliosis (GFAP staining) compared with reverse p65-treatment” value in assay [5] is reported as 40%. Besides, the “Increase in the rate of migration of the neuronal precursors compared with the control without peptide” value in assay [6] is listed as “+40%”.

Take DSPLVPFIDFHP [p21]: the “Rate of migration of the neuronal precursors compared to the corresponding control peptide” value in assay [2] is “significant decrease”.

These data come from patent US7417025B2, “Use of poly-α2,8-sialic acid mimetic peptides to modulate NCAM functions” (Centre National de la Recherche Scientifique, priority 2002, dated 2008).
